In patent publication US12268694B2, “Combination pharmaceutical agents as RSV inhibitors” (Enanta Pharmaceuticals, Inc., priority 2017, dated 2025):

What was measured:
[1] = system: genotype A, "Long" strain RSV; assay: RSV-A assay: CPE protection in HEp-2 cells, ATPlite readout; type: cell-based, human respiratory syncytial virus; details: human respiratory syncytial virus, HEp-2, read-out: Human RSV-A (“Long” strain) EC50
Procedure, shortened: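 EC50 derives from ATPlite luminescence after 5-day culture of RSV Long-infected (MOI 0.1) HEp-2 cells, seeded 8,000/well, exposed to duplicate 2-fold compound series. CC50 comes from an identical plate receiving medium instead of virus.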

HEp-2 cells = assay: Cytotoxicity in parallel to the RSV-A assay (no virus), ATPlite readout; type: cell-based, human
Experimental: Following extensive parameter testing, the final assay is run as follows: HEp-2 cells are seeded into the inner 60 wells of a 96-well plate at 8,000 cells per well in a volume of 50 μL using Growth Media (DMEM without phenol red, 1% L-Glut, 1% Penn/Strep, 1% nonessential amino acids, 10% heat-inactivated FBS). 2-fold serial dilutions of control and test compounds are added to the wells in duplicate in a total volume of 25 μL. Viral stock is then added to the wells at a multiplicity of infection (MOI) of 0.1 in a volume of 25 μL, bringing the total volume of each well to 100 μL. The MOI is calculated using the PFU/mL, or TCID50 if unavailable. Each 96-well plate has a control column of 6 wells with cells and virus but no compound (negative control, max CPE), a column with cells but no compound or virus (positive control, minimum CPE), and a column with no cells or virus or compound (background plate/reagent control). The control wells with cells but no virus are given an additional 25 μL of growth media containing an equal quantity of sucrose as those wells receiving the viral stock in order to keep consistent in media and volume conditions. The outer wells of the plate are filled with 125 μL of moat media (DMEM, 1% Penn/Strep) to act as a thermal and evaporative moat around the test wells. Following a 5-day incubation period, the plates are read using ATPlite (50 μL added per well), which quantifies the amount of ATP (a measure of cell health) present in each well. Assay plates are read using the Envision luminometer. In parallel, cytotoxicity is examined on an additional 96-well plate treated in an identical manner, but substituting the 25 μL of viral stock for 25 μL of growth media. […] EC50 ranges are as follows: A <0.4 μM; B 0.4-0.8 μM; C >0.8 μM and CC50 ranges are as follows: A >50 μM; B 10-50 μM; C <10 μM.

SMILES	EC50 [1] [nM]	CC50 (HEp-2 cells) [nM]
N#Cc1ccc(-c2nnc(NC3N=C(c4ccccc4)c4ccccc4NC3=O)s2)cc1 (centres unmarked) [Example 82]	400 to 800	> 50000
O=C1Nc2ccccc2C(c2ccccc2)=NC1Nc1nnc(-c2cc3cccnc3s2)o1 (centres unmarked) [Example 43]	> 800	> 50000
O=C1Nc2ccccc2C(c2ccccc2)=NC1Nc1nnc(-c2cnco2)o1 (centres unmarked) [Example 75]	> 800	> 50000
O=C1Nc2ccccc2C(c2ccccc2)=NC1Nc1cc(-c2ccccc2)ncn1 (centres unmarked) [Example 92]	> 800	10000 to 50000
N#Cc1cccc(-c2nnc(NC3N=C(c4ccccc4)c4ccccc4NC3=O)o2)c1 (centres unmarked) [Example 35]	> 800	> 50000
O=C1Nc2ccccc2C(c2ccccc2)=NC1Nc1nnc(-c2ccccc2)s1 (centres unmarked) [Example 81]	> 800	> 50000
O=C1Nc2ccccc2C(c2ccccc2)=NC1Nc1nnc(-c2ccc(F)nc2)o1 (centres unmarked) [Example 53]	400 to 800	> 50000
O=C1Nc2ccccc2C(c2ccccc2)=NC1Nc1nnc(-c2ccccc2F)o1 (centres unmarked) [Example 6]	> 800	> 50000
O=C1Nc2ccccc2C(c2ccccc2)=NC1Nc1nnc(-c2ccc3ccccc3c2)o1 (centres unmarked) [Example 16]	400 to 800	> 50000
O=C1Nc2ccccc2C(c2ccccc2)=NC1Nc1nnc(-c2cnccn2)o1 (centres unmarked) [Example 58]	> 800	> 50000
O=C1Nc2ccccc2C(c2ccccc2)=NC1Nc1nnc(-c2ccc(Cl)cc2)o1 (centres unmarked) [Example 13]	< 400	> 50000
O=C1Nc2ccccc2C(c2ccccc2)=NC1Nc1nnc(C2CC2)o1 (centres unmarked) [Example 5]	> 800	> 50000
O=C1Nc2ccccc2C(c2ccccc2)=NC1Nc1nnc(C2CCNCC2)o1 (centres unmarked) [Example 45]	> 800	> 50000
O=C1Nc2ccccc2C(c2ccccc2)=NC1Nc1nnc(-c2ccc(F)cc2F)o1 (centres unmarked) [Example 50]	> 800	> 50000
O=C1Nc2ccccc2C(c2ccccc2)=NC1Nc1nnc(-c2ccc(Cl)o2)o1 (centres unmarked) [Example 20]	> 800	> 50000
CN1CCC(c2nnc(NC3N=C(c4ccccc4)c4ccccc4NC3=O)o2)CC1 (centres unmarked) [Example 46]	> 800	> 50000
Cn1cc(-c2nnc(NC3N=C(c4ccccc4)c4ccccc4NC3=O)o2)cn1 (centres unmarked) [Example 66]	400 to 800	> 50000
O=C1Nc2ccccc2C(c2ccccc2)=NC1Nc1nnc(-c2ccc(F)cn2)o1 (centres unmarked) [Example 23]	> 800	> 50000
O=C1Nc2ccccc2C(c2ccccc2)=NC1Nc1nnc([C@@H]2COCCN2)o1 (some centres unmarked) [Example 48]	> 800	> 50000
O=C1Nc2ccccc2C(c2ccccc2)=NC1Nc1nnc([C@H]2COCCN2)o1 (some centres unmarked) [Example 49]	> 800	> 50000
Cc1ccc(-c2nnc(NC3N=C(c4ccccc4)c4ccccc4NC3=O)o2)o1 (centres unmarked) [Example 71]	> 800	> 50000

SMILES	EC50 [1] [nM]	CC50 (HEp-2 cells) [nM]
O=C1Nc2ccccc2C(c2ccccc2)=NC1Nc1nc(-c2ccccc2)ns1 (centres unmarked) [Example 87]	> 800	10000 to 50000
O=C1Nc2ccccc2C(c2ccccc2)=NC1Nc1nnc(-c2ccncn2)o1 (centres unmarked) [Example 63]	> 800	> 50000
O=C1Nc2ccccc2C(c2ccccc2)=NC1Nc1nnc(-c2ccccn2)o1 (centres unmarked) [Example 11]	400 to 800	> 50000
CN(C)Cc1ccc(-c2nnc(NC3N=C(c4ccccc4)c4ccccc4NC3=O)o2)o1 (centres unmarked) [Example 73]	> 800	> 50000
O=C1Nc2ccccc2C(c2ccccc2)=NC1Nc1nnc(-c2ccccc2)[nH]1 (centres unmarked) [Example 86]	> 800	> 50000
COc1cccc(-c2nnc(NC3N=C(c4ccccc4)c4ccccc4NC3=O)o2)c1 (centres unmarked) [Example 4]	> 800	> 50000
O=C1Nc2ccccc2C(c2ccccc2)=N[C@@H]1Nc1nnc(-c2ccco2)o1 [Example 10a]	400 to 800	> 50000
O=C1Nc2ccccc2C(c2ccccc2)=NC1Nc1cc(N2CCOCC2)ncn1 (centres unmarked) [Example 93]	> 800	10000 to 50000
O=C1Nc2ccccc2C(c2ccccc2)=NC1Nc1nnc(-c2ccc3nc[nH]c3c2)o1 (centres unmarked) [Example 41]	> 800	> 50000
COc1cccc(-c2nnc(NC3N=C(c4ccccc4)c4ccccc4NC3=O)o2)n1 (centres unmarked) [Example 52]	< 400	> 50000
O=C1Nc2ccccc2C(c2ccccc2)=NC1Nc1nc2ccccc2o1 (centres unmarked) [Example 100]	> 800	10000 to 50000
O=C1Nc2ccccc2C(c2ccccc2)=NC1Nc1nnc(-c2cccc(C(F)(F)F)c2)o1 (centres unmarked) [Example 29]	> 800	> 50000
Cc1cccc(-c2nnc(NC3N=C(c4ccccc4)c4ccccc4NC3=O)o2)n1 (centres unmarked) [Example 26]	> 800	> 50000
CC(=O)N1CCC(c2nnc(NC3N=C(c4ccccc4)c4ccccc4NC3=O)o2)CC1 (centres unmarked) [Example 47]	> 800	> 50000
O=C1Nc2ccccc2C(c2ccccc2)=NC1Nc1nnc(-c2ccncc2)o1 (centres unmarked) [Example 61]	400 to 800	> 50000
O=C1Nc2ccccc2C(c2ccccc2)=NC1Nc1nc2ccc(F)cc2o1 (centres unmarked) [Example 103]	> 800	10000 to 50000
O=C1Nc2ccccc2C(c2ccccc2)=NC1Nc1nnc(-c2ccccc2)o1 (centres unmarked) [Example 2]	> 800	> 50000
N#Cc1cc(-c2nnc(NC3N=C(c4ccccc4)c4ccccc4NC3=O)o2)ccn1 (centres unmarked) [Example 38]	> 800	> 50000
Cc1cc(-c2nnc(NC3N=C(c4ccccc4)c4ccccc4NC3=O)o2)on1 (centres unmarked) [Example 74]	> 800	> 50000
O=C1Nc2ccccc2C(c2ccccc2)=NC1Nc1nnco1 (centres unmarked) [Example 79]	> 800	> 50000
O=C1Nc2ccccc2C(c2ccccc2)=NC1Nc1nc2c(F)cccc2o1 (centres unmarked) [Example 105]	> 800	> 50000

SMILES	EC50 [1] [nM]	CC50 (HEp-2 cells) [nM]
O=C1Nc2ccccc2C(c2ccccc2)=NC1Nc1nc(N2CCOCC2)ns1 (centres unmarked) [Example 88]	> 800	10000 to 50000
O=C1Nc2ccccc2C(c2ccccc2)=NC1Nc1nc2cc(F)ccc2o1 (centres unmarked) [Example 104]	> 800	10000 to 50000
COc1ccc(-c2nnc(NC3N=C(c4ccccc4)c4ccccc4NC3=O)o2)nc1 (centres unmarked) [Example 51]	400 to 800	> 50000
O=C1Nc2ccccc2C(c2ccccc2)=NC1Nc1ncc(-c2ccccc2)o1 (centres unmarked) [Example 84]	> 800	10000 to 50000
O=C1Nc2ccccc2C(c2ccccc2)=NC1Nc1nnc(-c2ccc(C(F)(F)F)cc2)o1 (centres unmarked) [Example 28]	> 800	> 50000
O=C1Nc2ccccc2C(c2ccccc2)=N[C@H]1Nc1nnc(-c2ccco2)o1 [Example 10b]	> 800	< 10000
CS(=O)(=O)c1ccc(-c2nnc(NC3N=C(c4ccccc4)c4ccccc4NC3=O)o2)cc1 (centres unmarked) [Example 27]	> 800	> 50000
N#Cc1ccc(-c2nnc(NC3N=C(c4ccccc4)c4ccccc4NC3=O)o2)cc1 (centres unmarked) [Example 12]	400 to 800	> 50000
O=C1Nc2ccccc2C(c2ccccc2)=NC1Nc1cccn(Cc2ccccc2)c1=O (centres unmarked) [Example 97]	> 800	> 50000
Cc1nnc(NC2N=C(c3ccccc3)c3ccccc3NC2=O)o1 (centres unmarked) [Example 18]	> 800	> 50000
Cc1ccc2oc(NC3N=C(c4ccccc4)c4ccccc4NC3=O)nc2c1 (centres unmarked) [Example 106]	> 800	< 10000
COCCOc1cccc(-c2nnc(NC3N=C(c4ccccc4)c4ccccc4NC3=O)o2)c1 (centres unmarked) [Example 1]	> 800	> 50000
COc1ccnc(-c2nnc(NC3N=C(c4ccccc4)c4ccccc4NC3=O)o2)c1 (centres unmarked) [Example 57]	> 800	> 50000
O=C1Nc2ccccc2C(c2ccccc2)=NC1Nc1nnc(-c2ccc(=O)[nH]c2)o1 (centres unmarked) [Example 39]	> 800	> 50000
O=C1Nc2ccccc2C(c2ccccc2)=NC1Nc1nnc(-c2cccnn2)o1 (centres unmarked) [Example 62]	> 800	> 50000
Cc1cc(-c2nnc(NC3N=C(c4ccccc4)c4ccccc4NC3=O)o2)ccc1C#N (centres unmarked) [Example 34]	400 to 800	> 50000
O=C1Nc2ccccc2C(c2ccccc2)=NC1Nc1nnc(-c2nccs2)o1 (centres unmarked) [Example 69]	> 800	> 50000
O=C1Nc2ccccc2C(c2ccccc2)=NC1Nc1nnc(-c2ncco2)o1 (centres unmarked) [Example 70]	> 800	> 50000
O=C1Nc2ccccc2C(c2ccccc2)=NC1Nc1nc2ccccc2s1 (centres unmarked) [Example 101]	> 800	10000 to 50000
